The values that follow come from EP1897937A1, “Method of culturing NPCs” (NeuroProgen GmbH Leipzig, priority 2006, dated 2008).

SMILES strings stand for the structures.

The assay relates to hmNPCs. The assay is described as follows: Western blot of proliferation marker PCNA and survival marker Bcl-2. Type of assay: cell-based, human. As to conditions: 2 weeks. How it is done:
To determine long-term proliferation, hmNPCs were plated and expanded for 2 passages with or without addition of various agents (see below) to the custom expansion media containing the growth factors EGF and FGF2. Different fetal midbrain tissues were included in this study. At the end of the proliferation period, differentiation of hmNPCs was induced via replacement of expansion media with mitogen-free media containing 1% FCS, 5 µM forskoline (Sigma-Aldrich Chemie GmbH Munich, Germany), and 100 pg/ml IL-1β (Sigma). The differentiation and expansion media were supplemented with different drugs as appropriate. Prior to immunocytochemistry or protein extraction, hmNPCs were allowed to differentiate for 1 week. To determine short-term proliferation via Ki67 immunostaining, the cells were seeded into 24-well plates (70,000 cells/well) and left overnight to rest. P2 receptor agonists (ATP, UTP, ATP + UTP, ADP, ADPβS) were supplied daily for 5 consecutive days. Ki67/nestin double-positive cells were counted in 8 randomly selected fields of nucleotide-treated or untreated samples. For the assessment of MAPK phosphorylation the cells were kept free of mitogens for 2 d prior to addition of the MEK-inhibitor in expansion media. In addition, the MEK-inhibitor was added during the differentiation period 15 min before UTP administration.
In order to prepare protein extracts, hmNPCs were collected, washed with ice-cold PBS and lysed in buffer [10 mM HEPES-KOH (pH 7.9), 10 mM KCI, 1.5 mM MgCl2, 0.1% NP-40], supplemented with protease inhibitor cocktail (Roche). After a brief centrifugation at 4°C/10 000×g, protein concentrations and protein yield from extracts were determined using the Bradford method (Bio-Rad, Hercules, CA, USA). To preserve the phosphorylation state of proteins, extracts for the MAPK experiment were obtained using the PhosphoSafe™ extraction reagent containing phophatase inhibitors (Novagen). […] The chemiluminescence was quantified using the AIDA, two-dimensional densitometry software (Raytest lsotopenmeb, Straubenhardt, Germany). […]

Regarding `O=c1ccn([C@@H]2O[C@H](COP(=O)(O)OP(=O)(O)OP(=O)(O)O)[C@@H](O)[C@H]2O)c(=O)[nH]1` [UTP, uridine 5'-triphosphate], the activity at 1 µM (Homo sapiens, 336 h, 1 µM, read-out: expression of the proliferation marker PCNA compared to control cells) stood at 330 ± 23%. Besides, the “expression of the survival marker Bcl-2” value (increasing UTP concentrations) is recorded as “did not significantly change”.
